# Data: patent US9474276B2, “Synergistic pesticidal compositions and related methods” (Dow AgroSciences LLC, priority 2013, dated 2016)
# System: diamondback moth, Plutella xylostella
# Assay: Bioassay on treated cabbage plants (track sprayer, 400 L/Ha) infested with second instar diamondback moth; synergy judged by Colby's equation
# Format: in vivo
# From the text: The method described in Colby S. R., “Calculating Synergistic and Antagonistic Responses of Herbicide Combinations,” Weeds, 1967, 15, 20-22 was used to determine an existence of synergic effect between the inhibitor of chitin biosynthesis, type 1 compound and the pesticide (I), (II), or any agriculturally acceptable salt thereof in the formulated pesticidal composition. In this method, the percent insect control of the formulated pesticidal composition as observed in the study was compared to the “expected” percent control (E) as calculated by equation (1) (hereinafter “Colby's equation”) below:
# [formula] where • X is the percentage of control with the first pesticide at a given rate (p), • Y is the percentage of control with the second pesticide at a given rate (q), and • E is the expected control by the first and second pesticide at a rate of p+q.
# Bioassays were performed for different active compounds. Cabbage plants with about two to three new-growth-true leaf stage were treated with different active compounds using a track sprayer application at 400 L/Ha spray volume. Three second instar diamondback moth, Plutella xylostella, were infested onto each leaf disc. The percent control of the pesticidal composition against diamondback moth, Plutella xylostella, was determined as the “Observed” action, and compared to those obtained by using about 0.000625 weight % of compound I, and using about 0.000625 weight % of buprofezin alone. The “Colby's Expected Action” was calculated using Colby's equation as discussed previously.
# Bioassays were performed wherein different active compounds were tested against diamondback moth, Plutella xylostella, using the procedure described in example 5A.
# Bioassays may be performed for different active compounds against diamondback moth, Plutella xylostella, using the procedure described in example 5A. The percent control may be determined after three days after the treatment.
# [1] = Example 5A, active used alone, dose rate 0.000625 weight %, diamondback moth on cabbage
Structure (SMILES),% Control Three Days After Treatment [1],"% Control Three Days After Treatment (Example 5B, compound I alone, dose rate 0.000625 weight %) [%]","% Control Three Days After Treatment (Example 5B, compound I alone, dose rate 0.000625 weight %, listed as compound I)","% Control Three Days After Treatment (Example 5C, compound I alone, dose rate 0.0025 weight %) [%]","% Control Three Days After Treatment (Example 5C, compound I alone, dose rate 0.0025 weight %, listed as compound I)","% Control Three Days After Treatment (Example 5A, active used alone, dose rate 0.000625 weight %, diamondback moth on cabbage, listed as buprofezin)","% Control Three Days After Treatment (Example 5B, buprofezin alone, dose rate 0.0025 weight %) [%]","% Control Three Days After Treatment (Example 5B, buprofezin alone, dose rate 0.0025 weight %, listed as buprofezin)","% Control Three Days After Treatment (Example 5C, buprofezin alone, dose rate 0.000625 weight %) [%]","% Control Three Days After Treatment (Example 5C, buprofezin alone, dose rate 0.000625 weight %, listed as buprofezin)"
"CCN(C(=O)CCSCCC(F)(F)F)c1cn(-c2cccnc2)nc1Cl [Compound I, N-(3-chloro-1-(pyridin-3-yl)-1H-pyrazol-4-yl)-N-ethyl-3-((3,3,3-trifluoropropyl)thio)propanamide]",no control,0,no control,0,no control,–,–,–,–,–
"CC(C)N1C(=O)N(c2ccccc2)CS/C1=N\C(C)(C)C [Buprofezin, (E,Z)-2-tert-butylimino-3-isopropyl-5-phenyl-1,3,5-thiadiazinan-4-one]",0%,–,–,–,–,no control,0,no control,0,no control
